Measured values from PubChem BioAssay AID2060609 (Molecular Pharmacology Branch, DTP, NCI, 2025).

System: 855422-203-R-J1-PDC complex spheroids, viability
Experiment: Anticancer human tumor 855422-203-R-J1-PDC patient-derived bladder carcinoma cell line growth inhibition [CLK]
Details: for IC50: curve of first compound; for viability, T/C: stronger effect = lower value; active = viability on the fitted dose curve at most 10% of control; inactive = the rest
In short: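 Patient-derived tumor cells grown as complex spheroids with HUVEC endothelial cells and mesenchymal stem cells, treated with drug combinations. Concentrations descend in half-log steps from near clinical Cmax, or from 10 microM if Cmax unknown.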
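Note: spheroids exposed to drugs for seven days before readout.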
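Throughout, for viability, T/C: 100% = DMSO vehicle control wells.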

CC(C)CC(NC(=O)C(Cc1ccccc1)NC(=O)c1cnccn1)B(O)O (configuration not stated) + CN1CCN(c2cc(C(=O)Nc3cc4cc(-c5cnn(C)c5)ccc4cn3)ccn2)CC1
active: viability, T/C (second compound 0.0316 µM, first compound 0.000949 µM) 2.28% | viability, T/C (second compound 0.0316 µM, first compound 0.003 µM) 0.31% | viability, T/C (second compound 0.0316 µM, first compound 0.00949 µM) 0.27% | viability, T/C (second compound 0.0316 µM, first compound 0.03 µM) 0.43% | viability, T/C (second compound 0.0316 µM, first compound 0.0949 µM) 0.41% | viability, T/C (second compound 0.0316 µM, first compound 0.3 µM) 0.27% | viability, T/C (second compound 0.1 µM, first compound 0.000949 µM) 2.61% | viability, T/C (second compound 0.1 µM, first compound 0.003 µM) 0.37% | viability, T/C (second compound 0.1 µM, first compound 0.00949 µM) 0.29% | viability, T/C (second compound 0.1 µM, first compound 0.03 µM) 0.43% | viability, T/C (second compound 0.1 µM, first compound 0.0949 µM) 0.35% | viability, T/C (second compound 0.1 µM, first compound 0.3 µM) 0.28% | viability, T/C (second compound 0.316 µM, first compound 0.000949 µM) 0.57% | viability, T/C (second compound 0.316 µM, first compound 0.003 µM) 0.22% | viability, T/C (second compound 0.316 µM, first compound 0.00949 µM) 0.27% | viability, T/C (second compound 0.316 µM, first compound 0.03 µM) 0.27% | viability, T/C (second compound 0.316 µM, first compound 0.0949 µM) 1.06% | viability, T/C (second compound 0.316 µM, first compound 0.3 µM) 0.19% | viability, T/C (second compound 1 µM, first compound 0.000949 µM) 0.21% | viability, T/C (second compound 1 µM, first compound 0.003 µM) 0.19% | viability, T/C (second compound 1 µM, first compound 0.00949 µM) 0.12% | viability, T/C (second compound 1 µM, first compound 0.03 µM) 0.19% | viability, T/C (second compound 1 µM, first compound 0.0949 µM) 0.16% | viability, T/C (second compound 1 µM, first compound 0.3 µM) 0.16% | viability, T/C (second compound 3.16 µM, first compound 0.000949 µM) 0.36% | viability, T/C (second compound 3.16 µM, first compound 0.003 µM) 0.15% | viability, T/C (second compound 3.16 µM, first compound 0.00949 µM) 1.95% | viability, T/C (second compound 3.16 µM, first compound 0.03 µM) 0.11% | viability, T/C (second compound 3.16 µM, first compound 0.0949 µM) 0.78% | viability, T/C (second compound 3.16 µM, first compound 0.3 µM) 0.11% | viability, T/C (second compound 10 µM, first compound 0.000949 µM) 0.29% | viability, T/C (second compound 10 µM, first compound 0.003 µM) 0.19% | viability, T/C (second compound 10 µM, first compound 0.00949 µM) 2.1% | viability, T/C (second compound 10 µM, first compound 0.03 µM) 0.2% | viability, T/C (second compound 10 µM, first compound 0.0949 µM) 0.22% | viability, T/C (second compound 10 µM, first compound 0.3 µM) 0.32%
< 0.949 nM: IC50 (second compound 0.0316 µM) | IC50 (second compound 0.1 µM) | IC50 (second compound 0.316 µM) | IC50 (second compound 1 µM) | IC50 (second compound 3.16 µM) | IC50 (second compound 10 µM)
